According to patent US7811760B2, “Vector and method for detecting the change in transcription amount” (priority 2006, dated 2010):

Tests used:
[1] = molecular target: T1, aryl hydrocarbon receptor (Rattus norvegicus, UniProt P41738, Q794H); assay: Reporter gene assay in Neuro2a with pTHE60/Luc and pTHE60×3/Luc (SEQ ID No: 4); type: cell-based, SD-line rat; conditions: 1 nM and 10 nM TCDD; pTHE60/Luc versus pTHE60×3/Luc
T1 construct: The SD-line rat AhR gene-coding region was amplified from the reverse-transcribed sample by means of PCR; V5-His (C-terminal tag of vector pcDNA4/V5-His B); expressed in transfected cells; host or cells: mouse neuroblastoma Neuro2a, transient transfection with LIPOFECTAMINE 2000
T1 sequence (P41738 10-853 Q794H): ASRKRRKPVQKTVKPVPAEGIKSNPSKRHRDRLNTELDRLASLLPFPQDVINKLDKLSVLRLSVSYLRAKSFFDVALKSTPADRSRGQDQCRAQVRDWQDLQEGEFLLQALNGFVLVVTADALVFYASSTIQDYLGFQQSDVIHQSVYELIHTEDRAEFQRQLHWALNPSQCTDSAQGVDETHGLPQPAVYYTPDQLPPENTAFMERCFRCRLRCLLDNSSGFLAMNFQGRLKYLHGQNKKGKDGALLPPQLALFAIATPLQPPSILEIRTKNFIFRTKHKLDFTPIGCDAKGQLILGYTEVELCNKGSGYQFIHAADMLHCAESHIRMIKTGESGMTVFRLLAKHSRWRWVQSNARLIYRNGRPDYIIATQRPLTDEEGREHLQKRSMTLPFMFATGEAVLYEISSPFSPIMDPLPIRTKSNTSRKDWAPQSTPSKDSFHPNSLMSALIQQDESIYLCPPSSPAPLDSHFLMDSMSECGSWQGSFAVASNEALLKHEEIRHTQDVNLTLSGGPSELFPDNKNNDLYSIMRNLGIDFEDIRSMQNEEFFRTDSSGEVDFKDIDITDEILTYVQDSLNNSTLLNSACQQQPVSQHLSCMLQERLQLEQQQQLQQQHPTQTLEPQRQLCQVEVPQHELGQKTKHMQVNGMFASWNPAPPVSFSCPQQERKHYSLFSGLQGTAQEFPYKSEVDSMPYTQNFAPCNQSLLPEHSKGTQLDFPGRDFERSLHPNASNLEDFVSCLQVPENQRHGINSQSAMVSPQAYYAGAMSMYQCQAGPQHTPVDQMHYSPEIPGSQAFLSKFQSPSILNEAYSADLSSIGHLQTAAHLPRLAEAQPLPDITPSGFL
Method: In Example 9, the region of SEQ ID No: 4 was used as the TCDD-responsive region in the TH transcriptional regulatory region. The region of SEQ ID No: 4 was amplified by PCR using the region of SEQ ID No: 3 as a template and using the following primers: Forward primer: 5′-[…]-3′ (SEQ ID No: 29); and Reverse primer: 5′-[…]-3′ (SEQ ID No: 30). Pyrobest DNA polymerase was used in the PCR. Recognition sequences for restriction enzymes KpnI (for forward primer) and NheI (for reverse primer) were added to the terminal of the respective primers, for the purpose of facilitating incorporation of the PCR amplified fragment into the vector. The terminal of the region of SEQ ID No: 4 amplified by PCR was phosphorylated with 5′-polynucleotide kinase (Takara Bio Inc.), and then, the regions of SEQ ID No: 4 were ligated in tandem with each other by using a ligation kit. The ligated DNA fragments were digested with restriction enzymes KpnI and NheI, and subjected to agarose gel electrophoresis. DNA fragment consisting of a single copy of the region of SEQ ID No: 4 and DNA fragment consisting of three copies of the regions of SEQ ID No: 4 linked in tandem were excised from the gel based on their molecular weight, and purified with a QIAQUICK Gel Extraction Kit. […]

[2] = tested on: ligand-dependent transcription factors (AhR, ER, and AR); assay: Reporter gene (luciferase) assay in Neuro2a cells carrying PGV-THp03 (SEQ ID No: 2); type: cell-based, mouse; conditions: 10 nM, 30 hours, PGV-THp03, AhR-introduced Neuro2a
Method: A vector (PGV-THp03) containing the upstream region (SEQ ID No: 2) ranging from about −300 to 0 position of the TH gene-coding region, which was prepared in Example 4, was used. Neuro2a was used as the cell.
Two kinds of vectors, pcDNA4-rAhR (Example 1) and pcDNA4/V5-His/lacZ (Invitrogen), were introduced into Neuro2a, together with PGV-THp03. pcDNA4-rAhR was introduced for constitutive expression of the SD-line rat AhR gene (SEQ ID No: 10) in the cell, and pcDNA4/V5-His/lacZ was introduced for normalization of the vector transfection efficiency.
The vectors were introduced into the cell by using LIPOFECTAMINE 2000 (Invitrogen). The cell was cultured on a 24-well plate, and the operation was performed according to the manual of Invitrogen. A total of […] of vectors (0.4 μg of PGV-THp03, 0.2 μg of pcDNA4-rAhR, and 0.2 μg of pcDNA4/V5-His/lacZ) suspended in 50 μl of OPTI-MEM medium and 2 μl of LIPOFECTAMINE 2000 suspended in 50 μl of OPTI-MEM medium were mixed, and incubated at room temperature for 20 minutes to form nucleic acid/LIPOFECTAMINE 2000 complex. The obtained suspension containing the complex was added to Neuro2a cell culture, which has been previously cultured overnight in 500 μl of DF1:1 medium (containing 10% fetal calf serum) (0.8×10^5 cells were seeded on previous day), to allow incorporation of the vectors into the cell. The cell was cultured additionally for 24 hours after transfection, for the purpose of improvement in vector incorporation efficiency and expression of the protein derived from the introduced vectors.
As the test substances, vinclozolin (10 μM), dimethyl phthalate (10 μM), benzopyrene (1 μM), and dioxin (TCDD) (10 nM) were used. After the transfection and the additional incubation for 24 hours, the medium was replaced with a fresh medium containing any one of the test substances, and the cell was cultured additionally for 30 hours. After 30 hours, the medium was removed from the 24-well plate, and the cell was washed with phosphate buffer twice. 100 μl of a protein extraction solution (manufactured by TOYO B-NET) was added to each well, and the cell suspension was stirred gently at room temperature for 15 minutes and then frozen at −80° C. The frozen solution was thawed at room temperature, and the resulting solution was recovered in a tube and diluted ten times with a protein extraction reagent containing 1 mg/ml bovine serum albumin luciferase and β-galactosidase activities in the diluted solution were measured, and the expression amount of the reporter gene was calculated as a relative luminescence intensity per 1 ng of β-galactosidase per second (RLU/sec/ng β-galactosidase).

Question: With Clc1cc2c(cc1Cl)Oc1cc(Cl)c(Cl)cc1O2 [TCDD, 2,3,7,8-tetrachlorodibenzo-p-dioxine] as the molecule, how does the “activity of the test substance on transcriptional regulation, by number of regions of SEQ ID No: 4” value [1] read?
Answer: increased according to the increase in the number of the regions incorporated into the vector

Question: What about the luciferase activity increase [2] of the same molecule?
Answer: approximately 1.4 times
